The text below walks through data of patent publication US20210261495A1, “COMPOSITIONS AND METHODS OF USING ITACONIC ACID DERIVATIVES” (ERGON PHARMACEUTICALS, LLC, priority 2018, published 2021).

In this assay the test system is C6-IRG1-9 rat glioma cells. Nature of the assay: C6-IRG1-9 rat glioma cell proliferation, CyQuant. The settings on record: various concentrations, 48 hrs. Format: cell-based. How it is done:
Tumor Cell Proliferation Assay. This assay was used to assess the anti-tumor properties of a therapeutic agent in vitro. In a typical proliferation assay, cells were cultured to near confluency in the appropriate media. Subsequently, the cells were trypsinized and plated onto 96-well plates at 2,000 or 5,000 cell per well. The cells were cultured for 48 to 96 hours in the presence or absence of the therapeutic agent. Cell proliferation was then determined using spectrophotometry (MTT assay, BrdU assay) or fluorimetry (Cyquant assay).
Inhibition of C6-IRG1-9 Rat Glioma cell proliferation. C6-IRG1-9 cells are rat C6 glioma cells that have been transfected to overexpress IRG1. Overexpression of IRG1 is maintained by culturing the cells in DMEM media containing 0.55 μg/mL puromycin. For the proliferation assays, the cells were plated onto a 96-well plate at a density of 2,000 cells/well. The cells were allowed to adhere overnight; they were subsequently treated with various concentrations of compounds of Formula (2) for 48 hrs. At the end of the incubation period, the number of cells is assessed using the CyQuant Cell Proliferation kit (Thermo Fisher) according to the manufacturer's instructions. The results, shown in FIG. 3, indicate that compounds of Formula (2) are able to reduce or abrogate growth of C6-IRG1-9 cells. In FIG. 3, cell proliferation is expressed as % Untreated Control, defined as: […]
where t is the number of cells present in a treated well at the end of the incubation period, c is the number of cells present in an untreated well at the end of the incubation period, and s is the initial number of cells in the wells prior to initiation of treatment.
Turning to `O=C(O)CC(=Cc1ccc(F)cc1)C(=O)O` [Compound (5), 2-[(4-fluorophenyl)methylidene]butanedioic acid], the “proliferation of C6-IRG1-9 rat glioma cells” value (“proliferation” below) is reported as “inhibition of proliferation”.
Regarding `CC(C)=C(CC(=O)O)C(=O)O` [(3), 2-(propan-2-ylidene)butanedioic acid], the “proliferation” value is listed as “inhibition of proliferation”.
Regarding `O=C(O)CC(=Cc1ccccc1)C(=O)O` [(4), 2-(phenylmethylidene)butanedioic acid], the “proliferation” value was “inhibition of proliferation”.
Turning to `C=CCC(C(=O)O)/C(=C/c1ccc(F)cc1)C(=O)O` (stereo not shown) [(7), 2-[(4-flurophenyl)methylidene]-3-(prop-2-ene-1-yl)butanedioic acid], the “proliferation” value is “inhibition of proliferation”.
